{"source": "ChEMBL document CHEMBL1131574", "about": "“Specific and irreversible cyclopeptide inhibitors of dipeptidyl peptidase IV activity of the T-cell activation antigen CD26” (J Med Chem, 1998)", "biological_target": "Dipeptidyl peptidase 4 (Homo sapiens, UniProt P27487)", "sequence (P27487 whole entry)": "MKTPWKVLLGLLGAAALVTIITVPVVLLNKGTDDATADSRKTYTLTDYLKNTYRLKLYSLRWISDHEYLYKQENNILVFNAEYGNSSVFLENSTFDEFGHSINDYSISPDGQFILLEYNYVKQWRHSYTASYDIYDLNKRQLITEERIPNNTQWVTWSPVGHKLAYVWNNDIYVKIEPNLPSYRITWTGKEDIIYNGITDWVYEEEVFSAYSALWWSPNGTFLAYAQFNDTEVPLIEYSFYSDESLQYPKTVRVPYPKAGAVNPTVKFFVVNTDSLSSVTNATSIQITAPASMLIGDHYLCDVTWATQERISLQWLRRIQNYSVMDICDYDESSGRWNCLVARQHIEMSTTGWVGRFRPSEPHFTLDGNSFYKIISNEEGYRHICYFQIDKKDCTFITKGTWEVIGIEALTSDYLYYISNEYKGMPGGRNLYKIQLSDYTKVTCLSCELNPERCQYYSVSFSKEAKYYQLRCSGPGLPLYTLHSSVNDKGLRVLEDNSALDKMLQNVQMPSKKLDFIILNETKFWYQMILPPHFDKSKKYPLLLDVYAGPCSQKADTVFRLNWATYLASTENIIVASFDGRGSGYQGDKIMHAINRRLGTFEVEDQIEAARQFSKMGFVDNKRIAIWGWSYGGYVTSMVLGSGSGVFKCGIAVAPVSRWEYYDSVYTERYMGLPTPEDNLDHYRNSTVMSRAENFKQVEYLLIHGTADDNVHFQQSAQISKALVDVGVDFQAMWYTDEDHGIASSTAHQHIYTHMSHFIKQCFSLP", "experiment": "Inhibitory activity against hydrolysis of Gly-Pro-pNa by CD26 (Dipeptidyl peptidase IV) purified from CEM H01 cells", "format": "cell-free, CCRF-CEM"}
{"smiles": "CCCCCCCC[S+](CCCCCCCC)Cc1ccc2cc1C(=O)NCC(=O)NCC(=O)NCCCC[C@H](N)C(=O)N1CCC[C@H]1C(=O)N2", "values": [{"measurement": "IC50", "result": 30, "unit": "nM"}]}
